Experimental data as given in patent publication US20090048269A1 (AstraZeneca AB, priority 2007, published 2009).

Columns and labels:
[1] = biological target: T1, human ALK5 (Homo sapiens, UniProt P36897); experiment: ALK5 Enzyme Assay 1; format: biochemical; set-up: 6His tagged ALK5 protein (amino acids 162-503) expressed in insect cells; 6His; made in house; host or cells: insect cells; settings: read-out: EAA: activity (μM) using Enzyme Assay 1
T1 sequence (P36897 162-503): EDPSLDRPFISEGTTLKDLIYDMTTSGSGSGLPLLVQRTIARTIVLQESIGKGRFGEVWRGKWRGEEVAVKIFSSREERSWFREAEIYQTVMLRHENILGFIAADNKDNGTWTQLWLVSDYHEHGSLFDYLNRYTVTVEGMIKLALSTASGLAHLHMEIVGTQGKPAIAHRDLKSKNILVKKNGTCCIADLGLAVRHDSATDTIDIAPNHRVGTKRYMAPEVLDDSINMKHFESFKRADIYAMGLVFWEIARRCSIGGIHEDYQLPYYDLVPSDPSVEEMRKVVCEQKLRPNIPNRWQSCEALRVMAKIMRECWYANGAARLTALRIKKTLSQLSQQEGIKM
Experimental: This assay measures the ability of a compound to bind to and inhibit the activity of ALK5 protein in vitro. […] Assay measurements were performed in assay buffer comprising 60 mM HEPES pH 7.4, 3 mM MgCl2, 3 mM MnCl2, 3 μM Na orthovanadate, 1.2 mM DTT and 0.05% PEG2000. […] Reactions were performed in the presence of 200 μg/mL casein (Sigma-Aldrich C4765-10ML), 200 ng/mL ALK5, 0.5 μM ATP (Sigma-Aldrich A7699), 1 μCi/mL γ-33P ATP. Following addition of casein, ATP and compound, reactions were initiated by adding ALK5 enzyme and reactions run for 90 minutes. After incubation reactions were terminated by addition of 20 μL per well of 50% orthophosphoric acid. 20 minutes after addition of 70% v/v TCA, precipitated protein was transferred to GF/C 96 well plates using a Tomtec harvester with 1.5% orthophosphoric acid. […] All reactions were performed under linear kinetics.

[2] = tested on: TGFβ1 mediated smad2 nuclear translocation; experiment: Cell Assay (Smad2 Redistribution Assay, MDA-MB-468 Smad2-EGFP cells); format: cell-based; settings: Homo sapiens, read-out: CAA: cell assay activity
Excerpt: Ligand mediated translocation of R-Smads (Smads 1,2,3,5,8) is a well-documented phenomenon in a variety of cell types. (Derynck, R. and Zhang, Y., 2003, Nature, 425, 577-584, Shi, Y. and Massague, J., 2003, Cell, 113, 685-700). Specifically TGFβ1 and TGFβ3 cause phosphorylation and nuclear translocation of Smad2 and Smad3 transcription factors. Thus compound inhibition of TGFβsignalling can be estimated by measuring cellular distribution of Smad2 or 3 under activated TGFβpathway. The Smad2 Redistribution™ Assay (Fisher BioImage ApS) was used to assess in vitro cellular activity of compounds of interest. The breast adenocarcinoma MDA-MB-468 parent cell line was used to create a recombinant cell line, MDA-MB-468 PS213 I GScl4C8 containing Smad2 fused to the C-terminus of enhanced green fluorescent protein (Smad2-EGFP). This enables monitoring of cellular distribution of Smad2 using high throughput fluorescence microscopy.
This assay measures the ability of compounds to inhibit TGFβ1 mediated smad2 nuclear translocation. Compounds dose ranges were created by diluting in 100% DMSO and then further into assay media (RPMI1640, 1% FCS, 10 mM HEPES pH 7.4). Cells were plated in 96 well Packard View plates at 8×10^3 per well in 100 μL RPMI1640, 10% FCS, 0.5 mg/mL geneticin and grown for 48 hrs. […] Plates were then read on an ArrayScan Vti instrument to determine nuclear to cytoplasmic staining. […]

[3] = IT6 (abbreviation not defined)
[4] = biological target: T1, human ALK5; experiment: ALK5 Enzyme Assay 2 (fluorescence polarisation probe displacement); format: binding; set-up: 6His tagged human ALK5 (residues162-503) was grown and purified from insect cells; 6His; made in house; host or cells: insect cells; settings: read-out: EAA2: activity (μM) using Enzyme Assay 2
Procedure, shortened: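 Recombinant ALK5 (3 μg/mL) incubated with test compound in 50 mM HEPES pH7.4, 10 mM MgCl2, 1 mM DTT, 0.01% CHAPS. Displacement of a fluorescent quinazoline-based ALK5 probe (50 nM final) in presence of 1 μM ATP read by fluorescence polarisation.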

Row | SMILES | IC50 [1] [µM] | IC50 [2] [nM] | IT6 [3] | IC50 [4] [µM]
1 | COc1cc(Nc2cc(Oc3ccc(C)nc3-c3cccc(C)c3)ccn2)cc(OC)c1OC [Example 57, 4-[6-Methyl-2-(3-methylphenyl)pyridin-3-yl]oxy-N-(3,4,5-trimethoxyphenyl)-pyridin-2-amine] | 0.0154 | 90.4 | – | –
2 | CNC(=O)c1nc(C)ccc1Oc1ccnc(Nc2ccccc2)c1 [Example 97, 3-(2-Anilinopyridin-4-yl)oxy-N,6-dimethylpyridine-2-carboxamide] | – | – | 0.9458 | 0.348
3 | CCc1ccc(Oc2ccnc(Nc3cc(OC)c(OC)c(OC)c3)c2)c(-c2cccc(C)n2)n1 [Example 3, 4-[6-Ethyl-2-(6-methylpyridin-2-yl)pyridin-3-yl]oxy-N-(3,4,5-trimethoxy-phenyl)pyridin-2-amine] | 0.0274 | – | – | 0.0459
